Results published in ChEMBL document CHEMBL3232755, “Optimization of plasmepsin inhibitor by focusing on similar structural feature with chloroquine to avoid drug-resistant mechanism of Plasmodium falciparum” (Bioorg Med Chem Lett, 2014).

Tests used:
Plasmodium falciparum [1] = experiment: Resistance index, ratio of EC50 for chloroquine, mefloquine and pyrimethamine-resistant Plasmodium falciparum TM91C235 to EC50 for chloroquine-sensitive Plasmodium falciparum D6; type: functional
Plasmodium falciparum [2] = experiment: Antimalarial activity against chloroquine, mefloquine and pyrimethamine-resistant Plasmodium falciparum TM91C235 by SYBR green I staining-based fluorescence assay; type: functional, organism-based
Plasmepsin II = Plasmepsin II (Plasmodium falciparum, UniProt P46925); experiment: Inhibition of Plasmodium falciparum plasmepsin 2
Chain of Plasmepsin II (P46925 whole entry): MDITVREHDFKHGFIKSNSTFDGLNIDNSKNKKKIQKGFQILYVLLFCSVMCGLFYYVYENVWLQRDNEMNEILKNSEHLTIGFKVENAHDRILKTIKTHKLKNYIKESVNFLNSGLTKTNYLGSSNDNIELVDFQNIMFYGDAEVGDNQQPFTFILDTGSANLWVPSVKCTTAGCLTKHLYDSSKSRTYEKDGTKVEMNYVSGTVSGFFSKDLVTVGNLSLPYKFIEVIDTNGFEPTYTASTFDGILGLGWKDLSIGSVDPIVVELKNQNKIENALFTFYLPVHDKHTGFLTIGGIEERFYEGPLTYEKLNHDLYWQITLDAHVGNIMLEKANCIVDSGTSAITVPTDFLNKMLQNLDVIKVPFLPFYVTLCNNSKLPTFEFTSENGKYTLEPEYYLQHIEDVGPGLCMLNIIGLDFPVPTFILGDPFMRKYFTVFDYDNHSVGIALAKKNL

Plasmodium falciparum [3] = experiment: Antimalarial activity against chloroquine-sensitive Plasmodium falciparum D6 by SYBR green I staining-based fluorescence assay; type: functional, organism-based
Plasmodium falciparum [4] = experiment: Antimalarial activity against chloroquine and pyrimethamine-resistant mefloquine-sensitive Plasmodium falciparum W2 by SYBR green I staining-based fluorescence assay; type: functional, organism-based
Plasmodium falciparum [5] = experiment: Resistance index, ratio of EC50 for chloroquine and pyrimethamine-resistant mefloquine-sensitive Plasmodium falciparum W2 to EC50 for chloroquine-sensitive Plasmodium falciparum D6; type: functional

| Structure (SMILES) | Ratio EC50 (Plasmodium falciparum [1]) | EC50 (Plasmodium falciparum [2]) [nM] | Ki (Plasmepsin II) [nM] | EC50 (Plasmodium falciparum [3]) [nM] | EC50 (Plasmodium falciparum [4]) [nM] | Ratio EC50 (Plasmodium falciparum [5]) |
| --- | --- | --- | --- | --- | --- | --- |
| CNCCN(C)c1cc(C)c(OCC(=O)N[C@@H](Cc2ccccc2)[C@H](O)C(=O)N2CSC(C)(C)[C@H]2C(=O)N[C@H]2c3ccccc3C[C@H]2O)c(C)c1 | 4.5 | 860 | – | – | – | – |
| CCNCCNc1cc(C)c(OCC(=O)N[C@@H](Cc2ccccc2)[C@H](O)C(=O)N2CSC(C)(C)[C@H]2C(=O)N[C@H]2c3ccccc3C[C@H]2O)c(C)c1 | 8.6 | 1900 | – | – | – | – |
| Cc1cc(NCCCl)cc(C)c1OCC(=O)N[C@@H](Cc1ccccc1)[C@H](O)C(=O)N1CSC(C)(C)[C@H]1C(=O)N[C@H]1c2ccccc2C[C@H]1O | <=2 | – | 5.5 | – | – | – |
| COC(CNc1cc(C)c(OCC(=O)N[C@@H](Cc2ccccc2)[C@H](O)C(=O)N2CSC(C)(C)[C@H]2C(=O)N[C@H]2c3ccccc3C[C@H]2O)c(C)c1)OC | <=2 | – | 11 | 850 | – | – |
| CCOP(=O)(CCNc1cc(C)c(OCC(=O)N[C@@H](Cc2ccccc2)[C@H](O)C(=O)N2CSC(C)(C)[C@H]2C(=O)N[C@H]2c3ccccc3C[C@H]2O)c(C)c1)OCC | <=2 | – | 22 | 600 | – | – |
| Cc1cccc(CNc2cc(C)c(OCC(=O)N[C@@H](Cc3ccccc3)[C@H](O)C(=O)N3CSC(C)(C)[C@H]3C(=O)N[C@H]3c4ccccc4C[C@H]3O)c(C)c2)n1 | <=2 | – | 4.4 | – | – | – |
| Cc1cc(NCc2c[nH]cn2)cc(C)c1OCC(=O)N[C@@H](Cc1ccccc1)[C@H](O)C(=O)N1CSC(C)(C)[C@H]1C(=O)N[C@H]1c2ccccc2C[C@H]1O | <=2 | – | 4.8 | – | – | – |
| Cc1cc(NCc2ccnc3ccccc23)cc(C)c1OCC(=O)N[C@@H](Cc1ccccc1)[C@H](O)C(=O)N1CSC(C)(C)[C@H]1C(=O)N[C@H]1c2ccccc2C[C@H]1O | <=2 | – | 1.7 | 500 | – | – |
| Cc1cc(NC(=O)CN)cc(C)c1OCC(=O)N[C@@H](Cc1ccccc1)[C@H](O)C(=O)N1CSC(C)(C)[C@H]1C(=O)N[C@H]1c2ccccc2C[C@H]1O | – | – | 1.2 | – | – | – |
| Cc1cc(NC(=O)CCN)cc(C)c1OCC(=O)N[C@@H](Cc1ccccc1)[C@H](O)C(=O)N1CSC(C)(C)[C@H]1C(=O)N[C@H]1c2ccccc2C[C@H]1O | 2.8 | 730 | 2.3 | 260 | – | – |
| Cc1cc(NC(=O)CCCN)cc(C)c1OCC(=O)N[C@@H](Cc1ccccc1)[C@H](O)C(=O)N1CSC(C)(C)[C@H]1C(=O)N[C@H]1c2ccccc2C[C@H]1O | 0.41 | 1300 | 1.1 | 3200 | – | – |
| Cc1cc(NC(=O)CCCCN)cc(C)c1OCC(=O)N[C@@H](Cc1ccccc1)[C@H](O)C(=O)N1CSC(C)(C)[C@H]1C(=O)N[C@H]1c2ccccc2C[C@H]1O | 0.34 | 620 | 1 | 1800 | – | – |
| Cc1cc(NC(=O)CCCCCN)cc(C)c1OCC(=O)N[C@@H](Cc1ccccc1)[C@H](O)C(=O)N1CSC(C)(C)[C@H]1C(=O)N[C@H]1c2ccccc2C[C@H]1O | 0.28 | 720 | 5.7 | 2600 | – | – |
| Cc1cc(NC(=O)CN2CCOCC2)cc(C)c1OCC(=O)N[C@@H](Cc1ccccc1)[C@H](O)C(=O)N1CSC(C)(C)[C@H]1C(=O)N[C@H]1c2ccccc2C[C@H]1O | – | – | 4.3 | – | – | – |
| Cc1cc(NCc2ccccn2)cc(C)c1OCC(=O)N[C@@H](Cc1ccccc1)[C@H](O)C(=O)N1CSC(C)(C)[C@H]1C(=O)N[C@H]1c2ccccc2C[C@H]1O | – | – | – | – | 730 | 1.3 |
